Source: patent US7348328B2, “MCH antagonists for the treatment of obesity” (Schering Corporation, priority 2001, dated 2008)

Target: T1, MCH receptor (Homo sapiens, UniProt Q99705)
T1 construct: expressed in transfected cells; host or cells: CHO cells (membranes)
Experiment: MCH Receptor Binding Assay
Settings: Binding Activity; membranes from CHO cells expressing the MCH receptor, [125I]-MCH; read-out: MCH Ki
Experimental: MCH Receptor Binding Assay:
Membranes from CHO cells expressing the MCH receptor were prepared by lysing cells with 5 mM HEPES for 15 min at 4C. Cell lysates were centrifuged ([…], 15 min) and the pellet was resuspended in 5 mM HEPES. For each 96-well plate (Microlite, Dynex Technologies), 1 mg of cell membranes were incubated with 10 mg of wheat germ agglutinin SPA beads (Amersham) for 5 min at 4 C. in a volume of 10 ml of binding buffer (25 mM HEPES, 10 mM MGCl2, 10 mM NaCl, 5 mM MnCl2, 0.1% BSA). The membrane/bead mixture was centrifuged (1500×g, 3.5 min), the supernatant was aspirated, and the pellet was resuspended in 10 ml binding buffer. The centrifugation, aspiration and resuspension were then repeated. […] Nonspecific binding was determined by including 1 μM MCH in the binding reaction. The binding reaction was incubated at room temperature for 2 h. Plates were then analyzed in a TOPCOUNT microplate scintillation counter (Packard). Data was analyzed and Ki values were determined using GraphPad Prim.

T1 sequence (Q99705 whole entry): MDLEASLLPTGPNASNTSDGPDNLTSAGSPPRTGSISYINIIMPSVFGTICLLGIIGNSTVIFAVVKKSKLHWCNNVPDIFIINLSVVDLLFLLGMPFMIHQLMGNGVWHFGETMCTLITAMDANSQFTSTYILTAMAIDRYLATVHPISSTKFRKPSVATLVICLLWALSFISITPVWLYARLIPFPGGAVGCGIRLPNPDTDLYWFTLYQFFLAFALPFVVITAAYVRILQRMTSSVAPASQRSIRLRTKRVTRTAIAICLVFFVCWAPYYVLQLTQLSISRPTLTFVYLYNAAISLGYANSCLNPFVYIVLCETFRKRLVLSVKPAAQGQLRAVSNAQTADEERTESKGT

Point of comparison: `N#Cc1cccc([C@]23CC[C@@H](N(CCN4CCN(CC5CC5)CC4)C(=O)Nc4ccc(F)c(C(F)(F)F)c4)[C@H]2C3)c1` [Example 209], Ki 10 nM. Against it:
- CN(C)CCN(C(=O)Nc1ccc(F)c(Cl)c1)[C@@H]1CC[C@]2(c3cccc(C#N)c3)C[C@H]12 [Example 187] — within 1.5-fold, 14 nM
- N#Cc1cccc([C@]23CC[C@@H](N(CCN4CCCC4)C(=O)Nc4cc(Cl)cc(Cl)c4)[C@H]2C3)c1 [Example 188] — 1.5-fold higher, 15 nM
- N#Cc1cccc([C@]23CC[C@@H](N(CCN4CCCC4)C(=O)Nc4ccc(F)c(Cl)c4)[C@H]2C3)c1 [Example 189] — 1.8-fold higher, 18 nM
- N#Cc1cccc([C@@]23CCC(N(CCN4CC[C@@H](O)C4)C(=O)Nc4ccc(F)c(Cl)c4)[C@@H]2C3)c1 (stereo partly drawn) [Example 190] — within 1.5-fold, 13 nM
- N#Cc1cccc([C@]23CC[C@@H](N(CCN4CC[C@@H](O)C4)C(=O)Nc4ccc(F)c(Cl)c4)[C@H]2C3)c1 [Example 191] — 2.2-fold higher, 22 nM
- N#Cc1cccc([C@]23CC[C@@H](N(CCN4CC[C@@H](O)C4)C(=O)Nc4ccc(F)c(C(F)(F)F)c4)[C@H]2C3)c1 [Example 193] — within 1.5-fold, 7.1 nM
- N#Cc1cccc([C@]23CC[C@@H](N(CCN4CCCCC4)C(=O)Nc4ccc(F)c(Cl)c4)[C@H]2C3)c1 [Example 194] — 2.4-fold lower, 4.1 nM
- CN(C)CCCCN(C(=O)Nc1ccc(F)c(Cl)c1)[C@@H]1CC[C@]2(c3cccc(C#N)c3)C[C@H]12 [Example 195] — the same, 10 nM
- N#Cc1cccc([C@]23CC[C@@H](N(CCCCN4CCCC4)C(=O)Nc4ccc(F)c(Cl)c4)[C@H]2C3)c1 [Example 196] — 2.6-fold lower, 3.9 nM
- O=C(Nc1ccc(F)c(C(F)(F)F)c1)N(CCN1CC[C@@H](O)C1)[C@@H]1CC[C@]2(c3cccc(Br)c3)C[C@H]12 [Example 197] — 7.9-fold higher, 79 nM
- N#Cc1cccc([C@]23CC[C@@H](N(CCN4CC[C@@H](O)C4)C(=O)Nc4ccc(F)c(C(F)(F)F)c4)[C@H]2C3)c1 [Example 198] — within 1.5-fold, 11 nM
- N#Cc1cccc([C@@]23CCC(N(CCN4CC[C@@H](O)C4)C(=O)Nc4ccc(F)c(C(F)(F)F)c4)[C@@H]2C3)c1 (stereo partly drawn) [Example 199] — 2.3-fold higher, 23 nM
- CN1CCN(CCN(C(=O)Nc2ccc(F)c(C(F)(F)F)c2)[C@@H]2CC[C@]3(c4cccc(C#N)c4)C[C@H]23)CC1 [Example 206] — 3-fold higher, 30 nM
- CCCN1CCN(CCN(C(=O)Nc2ccc(F)c(C(F)(F)F)c2)[C@@H]2CC[C@]3(c4cccc(C#N)c4)C[C@H]23)CC1 [Example 207] — 2.2-fold higher, 22 nM
- CC(C)CN1CCN(CCN(C(=O)Nc2ccc(F)c(C(F)(F)F)c2)[C@@H]2CC[C@]3(c4cccc(C#N)c4)C[C@H]23)CC1 [Example 208] — within 1.5-fold, 9 nM
- N#Cc1cccc([C@]23CC[C@@H](N(CCN4CCNCC4)C(=O)Nc4ccc(F)c(C(F)(F)F)c4)[C@H]2C3)c1 [Example 210] — 2-fold higher, 20 nM
- N#Cc1cccc([C@]23CC[C@@H](N(CCCCN4CCOCC4)C(=O)Nc4ccc(F)c(C(F)(F)F)c4)[C@H]2C3)c1 [Example 225] — 3.8-fold lower, 2.6 nM
- CN1CCN(CCCCN(C(=O)Nc2ccc(F)c(C(F)(F)F)c2)[C@@H]2CC[C@]3(c4cccc(C#N)c4)C[C@H]23)CC1 [Example 226] — 4.5-fold lower, 2.2 nM

Same assay, conditions: Table 1b, preferred compounds; read-out: MCH R1 Ki

Point of comparison: `CN1CCN(CCCN(C(=O)Nc2ccc(F)c(C(F)(F)F)c2)[C@@H]2CC[C@@]3(c4ccc(C#N)cc4)CC23)CC1` (stereo partly drawn), Ki 3 nM. Against it:
- CN(C)CCN(C(=O)Nc1ccc(Cl)c(Cl)c1)C1CC=C(c2cccc(C#N)c2)CC1 (stereo not drawn) — the same, 3 nM
- N#Cc1cccc([C@@]23CC[C@@H](N(CCN4C[C@@H](O)[C@@H](O)C4)C(=O)Nc4ccc(F)c(Cl)c4)CC2C3)c1 (stereo partly drawn) — 6-fold higher, 18 nM
- N#Cc1cccc(C2=CCC(N(CCN3CCCC3)C(=O)Nc3ccc(F)c(C(F)(F)F)c3)CC2)c1 (stereo not drawn) — within 1.5-fold, 2.7 nM
- C[S+]([O-])c1cccc(C23CCC(N(CCCN4CCCC4)C(=O)Nc4ccc(Cl)c(Cl)c4)CC2C3)c1 (stereo not drawn) — 6.7-fold higher, 20 nM
- CC(C)N(CCN(C(=O)Nc1cc(Cl)nc(Cl)c1)[C@@H]1CC[C@@]2(c3cccc(C#N)c3)CC2C1)C(C)CO (stereo partly drawn) — 1.9-fold lower, 1.6 nM
- CC(=O)Nc1cccc([C@@]23CC[C@@H](N(CCN4CCCC4)C(=O)Nc4ccc(F)c(C(F)(F)F)c4)CC2C3)c1 (stereo partly drawn) — 1.5-fold higher, 4.6 nM
- CN1CCN(CCCN(C(=O)Nc2ccc(F)c(Cl)c2)[C@@H]2CC[C@]3(c4cccc(C#N)c4)C[C@@H]3C2)CC1 — within 1.5-fold, 4.2 nM
- CC(=O)Nc1cccc([C@@]23CC[C@@H](N(CCCN4CCN(C)CC4)C(=O)Nc4ccc(F)c(Cl)c4)CC2C3)c1 (stereo partly drawn) — 3.3-fold lower, 0.9 nM
- N#Cc1cccc([C@@]23CC[C@@H](N(CCCN4CCC4)C(=O)Nc4ccc(F)c(F)c4)CC2C3)c1 (stereo partly drawn) — within 1.5-fold, 3.7 nM
- N#Cc1ccc(C2=CCC(N(CCN3CCCC3)C(=O)Nc3ccc(F)c(Cl)c3)CC2)cc1 (stereo not drawn) — 3.7-fold higher, 11 nM
- O=C(Nc1ccc(F)c(F)c1)N(CCCN1CCCC1)[C@@H]1CC[C@@]2(c3cccc(-c4ncc[nH]4)c3)CC2C1 (stereo partly drawn) — 1.8-fold higher, 5.4 nM
- O=C(Nc1ccc(F)c(Cl)c1)N(CCN1CCCC1)C1CC=C(c2cccc(Cl)c2)CC1 (stereo not drawn) — 4.7-fold higher, 14 nM
- O=C(Nc1ccc(F)c(C(F)(F)F)c1)N(CCN1CCCC1)C1CC=C(c2cccc(Cl)c2)CC1 (stereo not drawn) — 4-fold higher, 12 nM
- N#Cc1cccc([C@@]23CCC(N(CCN4CC[C@@H](O)C4)C(=O)Nc4cc(Cl)cc(Cl)c4)CC2C3)c1 (stereo partly drawn) — within 1.5-fold, 3.5 nM
- N#Cc1cccc([C@@]23CC[C@@H](N(CCCN4CC[C@@H](F)C4)C(=O)Nc4ccc(F)c(F)c4)CC2C3)c1 (stereo partly drawn) — 1.7-fold higher, 5 nM
- CN1CCN(CCCCN(C(=O)Nc2ccc(F)c(Cl)c2)[C@@H]2CC[C@]3(c4cccc(C#N)c4)C[C@H]23)CC1 — within 1.5-fold, 2.2 nM
- CN1CCN(CCCCN(C(=O)Nc2cc(Cl)nc(Cl)c2)C2CC[C@@]3(c4ccc(C#N)cc4)CC23)CC1 (stereo partly drawn) — 1.5-fold lower, 2 nM
- N#Cc1cccc([C@@]23CC[C@@H](N(CCCN4CC[C@@H](O)C4)C(=O)Nc4ccc(F)c(F)c4)CC2C3)c1 (stereo partly drawn) — 2.5-fold lower, 1.2 nM
- N#Cc1cccc([C@@]23CC[C@@H](N(CCN4CC[C@@H](O)C4)C(=O)Nc4cc(Cl)cc(Cl)c4)CC2C3)c1 (stereo partly drawn) — 4.3-fold higher, 13 nM
- N#Cc1cccc([C@@]23CC[C@@H](N(CCCN4CC[C@@H](O)C4)C(=O)Nc4cc(F)cc(F)c4)CC2C3)c1 (stereo partly drawn) — 1.7-fold lower, 1.8 nM
- CS(=O)(=O)N1CCC(CN(C(=O)Nc2ccc(F)c(C(F)(F)F)c2)[C@@H]2CC[C@@]3(c4cccc(C#N)c4)CC3C2)CC1 (stereo partly drawn) — 8.7-fold higher, 26 nM
- N#Cc1cccc(C23CCC(N(CCN4CCCC4)C(=O)Nc4cc(Cl)cc(Cl)c4)C2C3)c1 (stereo not drawn) — 5-fold higher, 15 nM
- CN1CCN(CCCCN(C(=O)Nc2ccc(F)c(Cl)c2)C2CC[C@@]3(c4ccc(C#N)cc4)CC23)CC1 (stereo partly drawn) — within 1.5-fold, 2.9 nM
- N#Cc1cccc(C23CCC(N(CCN4CCCC4)C(=O)Nc4ccc(F)c(Cl)c4)C2C3)c1 (stereo not drawn) — 6-fold higher, 18 nM
- CN1CCN(CCCN(C(=O)Nc2ccc(F)c(Cl)c2)[C@@H]2CC[C@]3(c4ccc(OC(F)(F)F)cc4)C[C@H]23)CC1 — 4.3-fold higher, 13 nM
- N#Cc1cccc([C@]23CCC(N(CCN4CC[C@@H](O)C4)C(=O)Nc4ccc(F)c(Cl)c4)[C@H]2C3)c1 (stereo partly drawn) — 4.3-fold higher, 13 nM
- CC(C)N(CCF)CCN(C(=O)Nc1cc(Cl)nc(Cl)c1)[C@@H]1CC[C@@]2(c3cccc(C#N)c3)CC2C1 (stereo partly drawn) — 3.4-fold higher, 10.2 nM
- N#Cc1cccc([C@@]23CC[C@@H](N(CCN4C[C@H]5C[C@H]5[C@H]4CO)C(=O)Nc4cc(Cl)nc(Cl)c4)CC2C3)c1 (stereo partly drawn) — the same, 3 nM
- CC1(C)[C@H]2[C@@H](CO)N(CCCCN(C(=O)Nc3ccc(F)c(C(F)(F)F)c3)[C@@H]3CC[C@@]4(c5ccc(C#N)cc5)C[C@H]34)C[C@H]21 — 2.7-fold higher, 8 nM
- CNS(=O)(=O)NC1CCN(CCCN(C(=O)Nc2ccc(F)c(Cl)c2)[C@@H]2CC[C@@]3(c4cccc(C#N)c4)CC3C2)C1 (stereo partly drawn) — 1.6-fold higher, 4.9 nM
- CS(=O)(=O)N1CCC(CN(C(=O)Nc2ccc(F)c(F)c2)[C@@H]2CC[C@@]3(c4cccc(C#N)c4)CC3C2)CC1 (stereo partly drawn) — 1.8-fold higher, 5.4 nM
- CC(C)N(CCN(C(=O)Nc1ccc(F)c(F)c1)C1CC[C@]2(c3cccc(C#N)c3)CC2C1)C(C)C (stereo partly drawn) — within 1.5-fold, 2.8 nM
- N#Cc1cccc([C@@]23CC[C@@H](N(CC4CCN(S(=O)(=O)N5CCOCC5)CC4)C(=O)Nc4ccc(F)c(F)c4)CC2C3)c1 (stereo partly drawn) — 15-fold higher, 45 nM
- CNCCN(C(=O)Nc1ccc(F)c(Cl)c1)[C@@H]1CC[C@@]2(c3cccc(C#N)c3)CC2C1 (stereo partly drawn) — 3-fold higher, 9.1 nM
- CC(C)N(CCN(C(=O)Nc1ccsc1)[C@H]1CC[C@]2(c3cccc(C#N)c3)CC2C1)C(C)C (stereo partly drawn) — 3.7-fold higher, 11.2 nM
- CC(C)N(CCN(C(=O)Nc1cccc(F)c1)[C@H]1CC[C@]2(c3cccc(C#N)c3)CC2C1)C(C)C (stereo partly drawn) — within 1.5-fold, 2.1 nM
- CCOC(=O)NC1CCN(CCCN(C(=O)Nc2ccc(F)c(F)c2)[C@@H]2CC[C@@]3(c4cccc(C#N)c4)CC3C2)C1 (stereo partly drawn) — 2-fold higher, 5.9 nM
- N#Cc1cccc([C@]23CC[C@H](N(CC4CCN(CC5CC5)CC4)C(=O)Nc4ccc(F)c(Cl)c4)CC2C3)c1 (stereo partly drawn) — 3.3-fold higher, 10 nM
- CC(=O)NC1CCN(CCCN(C(=O)Nc2ccc(F)c(F)c2)[C@@H]2CC[C@@]3(c4cccc(C#N)c4)CC3C2)C1 (stereo partly drawn) — 1.9-fold higher, 5.8 nM
- N#Cc1cccc([C@]23CC[C@H](N(CC4CCN(C5CCSC5)CC4)C(=O)Nc4ccc(F)c(Cl)c4)CC2C3)c1 (stereo partly drawn) — 2.5-fold higher, 7.5 nM
- CCNS(=O)(=O)NC1CCN(CCCN(C(=O)Nc2ccc(F)c(F)c2)[C@@H]2CC[C@@]3(c4cccc(C#N)c4)CC3C2)C1 (stereo partly drawn) — 2.4-fold higher, 7.1 nM
- CN1CCN(CCCN(C(=O)Nc2ccc(F)c(Cl)c2)[C@@H]2CC[C@]3(c4cccc(Cl)c4)C[C@H]23)CC1 — 5-fold higher, 15 nM
- N#Cc1cccc([C@@]23CC[C@@H](N(CCCN4CCCC4)C(=O)Nc4ccc(F)c(F)c4)CC2C3)c1 (stereo partly drawn) — 2.7-fold lower, 1.1 nM
- CSc1cccc([C@@]23CC[C@@H](N(CCCN4CCCC4)C(=O)Nc4ccc(F)c(F)c4)CC2C3)c1 (stereo partly drawn) — 7.3-fold higher, 22 nM
- CC(C)N(CCO)CCN(C(=O)Nc1cc(Cl)nc(Cl)c1)C1CC[C@@]2(c3cccc(C#N)c3)CC2C1 (stereo partly drawn) — 1.9-fold lower, 1.6 nM
- CC(=O)Nc1cccc(C23CC[C@@H](N(CCN4CC[C@@H](O)C4)C(=O)Nc4ccc(F)c(C(F)(F)F)c4)CC2C3)c1 (stereo partly drawn) — 1.6-fold higher, 4.8 nM
